Assay results: ChEMBL document CHEMBL6115005, “New phenylpiperazine-thiazolidine-2,4-dione hybrids targeting MAO inhibition: Synthesis, biological evaluation, kinetic study and in silico insights” (Bioorg Med Chem, 2025)

Legend:
[1] = target: T1, Amine oxidase [flavin-containing] B (Homo sapiens, UniProt P27338); experiment: Inhibition of human MAO-B using benzylamine as substrate by fluorometric assay
T1 sequence (P27338 whole entry): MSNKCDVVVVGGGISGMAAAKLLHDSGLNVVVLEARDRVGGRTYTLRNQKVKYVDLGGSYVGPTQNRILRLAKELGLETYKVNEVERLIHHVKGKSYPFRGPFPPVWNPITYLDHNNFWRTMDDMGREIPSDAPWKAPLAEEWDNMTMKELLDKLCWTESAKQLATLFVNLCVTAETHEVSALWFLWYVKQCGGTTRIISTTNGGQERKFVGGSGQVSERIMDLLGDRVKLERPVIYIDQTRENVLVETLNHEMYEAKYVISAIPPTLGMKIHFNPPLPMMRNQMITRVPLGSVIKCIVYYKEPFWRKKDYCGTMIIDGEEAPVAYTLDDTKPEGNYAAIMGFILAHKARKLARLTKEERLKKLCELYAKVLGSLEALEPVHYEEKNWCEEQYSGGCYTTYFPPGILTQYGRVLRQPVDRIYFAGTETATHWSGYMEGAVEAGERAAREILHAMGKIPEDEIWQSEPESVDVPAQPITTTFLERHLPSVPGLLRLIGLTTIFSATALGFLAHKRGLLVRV

Homo sapiens = species: Homo sapiens; experiment: Selectivity index, ratio of IC50 for inhibition of human MAO-B using benzylamine as substrate to IC50 for inhibition of human MAO-A using kynuramine as substrate
[2] = target: T2, Amine oxidase [flavin-containing] A (Homo sapiens, UniProt P21397); experiment: Inhibition of human MAO-A using kynuramine as substrate by fluorometric assay
T2 sequence (P21397 whole entry): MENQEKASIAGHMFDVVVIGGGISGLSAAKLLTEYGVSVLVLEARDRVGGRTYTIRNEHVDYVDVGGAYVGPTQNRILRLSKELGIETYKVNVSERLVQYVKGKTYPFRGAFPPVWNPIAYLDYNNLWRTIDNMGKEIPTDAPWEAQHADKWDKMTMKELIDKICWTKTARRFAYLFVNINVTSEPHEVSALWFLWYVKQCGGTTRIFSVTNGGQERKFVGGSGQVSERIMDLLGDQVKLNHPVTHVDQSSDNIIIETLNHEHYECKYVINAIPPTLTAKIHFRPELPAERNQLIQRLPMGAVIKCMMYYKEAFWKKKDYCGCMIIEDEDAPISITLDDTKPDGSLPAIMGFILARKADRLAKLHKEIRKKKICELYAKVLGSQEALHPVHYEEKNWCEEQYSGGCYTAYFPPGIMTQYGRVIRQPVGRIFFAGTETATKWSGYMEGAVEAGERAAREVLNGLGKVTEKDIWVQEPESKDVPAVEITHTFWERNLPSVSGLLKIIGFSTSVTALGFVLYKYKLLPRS

[3] = target: T2, Amine oxidase [flavin-containing] A; experiment: Inhibition of MAO-A (unknown origin)
[4] = target: T1, Amine oxidase [flavin-containing] B; experiment: Inhibition of MAO-B (unknown origin)
PC-12 = experiment: Neuroprotective activity against rotenone-induced cytotoxicity in rat PC12 cells assessed as increase in cell viability at 16 microg/ml by MTT assay; assay type: functional; conditions: dose 16 µg/ml
[5] = target: T2, Amine oxidase [flavin-containing] A; experiment: Mixed type inhibition of human MAO-A by lineweaver-burk plot analysis
SH-SY5Y = experiment: Cytotoxicity against human SH-SY5Y cells by MTT assay; assay type: functional, cell-based

| IC50 [1] [nM] | Ratio IC50 (Homo sapiens) | IC50 [2] [nM] | SMILES | also measured |
| --- | --- | --- | --- | --- |
| 3010 | 2.02 | 1490 | C#CCN1C(=O)S/C(=C\c2ccc(N3CCN(c4ccccc4)CC3)cc2)C1=O |  |
| 330 | 0.22 | 1480 | C=CCN1C(=O)S/C(=C\c2ccc(N3CCN(c4ccc(F)cc4)CC3)cc2)C1=O |  |
| 5580 | 6.87 | 812 | C=CCN1C(=O)S/C(=C\c2ccc(N3CCN(c4ccccc4OCC)CC3)cc2)C1=O |  |
|  |  |  | CN1CCN(c2ccc(/C=N/Nc3nc(-c4ccc([N+](=O)[O-])cc4)cs3)cc2)CC1 | IC50 [3]: 57 nM |
| 2740 | 5.28 | 518 | O=C1S/C(=C\c2ccc(N3CCN(C4CCCCC4)CC3)cc2)C(=O)N1Cc1ccccc1 |  |
| 705 | 0.49 | 1430 | C#CCN1C(=O)S/C(=C\c2ccc(N3CCN(C4CCCCC4)CC3)cc2)C1=O |  |
| 2730 | 2 | 1360 | CCOc1ccccc1N1CCN(c2ccc(/C=C3\SC(=O)NC3=O)cc2)CC1 |  |
|  |  |  | CC(C)(C)c1ccc(S(=O)(=O)c2ccc(N3CCN(C(c4ccccc4)c4ccccc4)CC3)cc2)cc1 | IC50 [4]: 610 nM |
| > 10000 | > 2.66 | 5700 | C=CCN1C(=O)S/C(=C\c2ccc(N3CCN(c4ccccc4)CC3)cc2)C1=O |  |
| > 10000 | > 5.79 | 1730 | C=CCN1C(=O)S/C(=C\c2ccc(N3CCN(C4CCCCC4)CC3)cc2)C1=O |  |
| 7130 | 2.83 | 2520 | O=C1NC(=O)/C(=C/c2ccc(N3CCN(c4ccc(F)cc4)CC3)cc2)S1 |  |
| 479 |  | 188 | O=C1S/C(=C\c2ccc(N3CCN(c4ccc(F)cc4)CC3)cc2)C(=O)N1Cc1ccccc1 | Activity (PC-12): 73.16%; Ki [5]: 3.4 nM; IC50 (SH-SY5Y): 94600 nM |
|  |  |  | OCc1ccc(N2CCN(c3cccc(Cl)c3)CC2)cc1 | IC50 [3]: 90 nM |
|  |  |  | COc1ccc(N2CCN(Cc3nnc(SCC(=O)c4ccc(Cl)cc4)n3C)CC2)cc1 | IC50 [4]: 70 nM; IC50 [3]: 70 nM |
| 1060 | 2.11 | 502 | CCOc1ccccc1N1CCN(c2ccc(/C=C3\SC(=O)N(Cc4ccccc4)C3=O)cc2)CC1 |  |
| 8980 | 2.85 | 3150 | O=C1NC(=O)/C(=C/c2ccc(N3CCN(C4CCCCC4)CC3)cc2)S1 |  |
| 1360 | 3.57 | 381 | C#CCN1C(=O)S/C(=C\c2ccc(N3CCN(c4ccc(F)cc4)CC3)cc2)C1=O |  |
| 1740 | 7.96 | 218 | C#CCN1C(=O)S/C(=C\c2ccc(N3CCN(c4ccccc4OCC)CC3)cc2)C1=O |  |
| 652 | 3.36 | 194 | O=C1S/C(=C\c2ccc(N3CCN(c4ccccc4)CC3)cc2)C(=O)N1Cc1ccccc1 |  |
| 6730 | 16.6 | 405 | O=C1NC(=O)/C(=C/c2ccc(N3CCN(c4ccccc4)CC3)cc2)S1 |  |
|  |  |  | C#CCN[C@@H]1CCc2ccccc21 [RASAGILINE] | Activity (PC-12): 69.75% |
